Non-standard residues stand in square brackets, D forms with d.
Legend:
[1] = system: CD271 expression in melanoma cell lines; experiment: CD271 protein expression by Western blotting and flow cytometry; type: cell-based, human; conditions: WM115, WM266-4 and SKMEL28, 1 to 2.5 mM, 48 h treatment
Procedure: FIG. 7. Chemotherapy up-regulates CD271 in primary and metastatic melanoma cell lines. (A) A real-time PCR using primers for intra- and extracellular CD271 receptor was performed on RNA extracts from three melanoma cell lines after treatment with carmustine (BCNU), cisplatin, dacarbazine (DTIC) or diluent. (B) Protein extracts from the three melanoma cell lines treated with different doses of cisplatin, carmustine, dacarbazine or diluent were separated on polyacrylamide gel and transferred onto nitrocellulose membranes. (C) Melanoma cell lines were treated with the chemotherapy or the diluent (see above) stained with anti CD271 mAb and analysed by flow cytometry.
FIG. 13. Non-steroid anti-inflammatory drugs (NSAID) enhance CD271 levels in melanoma cell lines. Three melanoma cell lines were treated with increasing doses of ketoprofen (A) or ibuprofen (B) and the percentage of CD271 positive cells was measured by flow cytometry.
Melanoma cell lines were treated with the chemotherapy or the diluent for 48 h, then were harvested and incubated with anti CD271 antibody (1:100 in PBS, Lab Vision Corporation, Thermo Fisher Scientific, Fremont, Calif., USA) for 20 min at 4° C. Cells were labeled with secondary antibody Alexa Fluor anti-mouse 488 (1:50, Thermo Fisher Scientific) for 20 min at 4° C. and analyzed with Epics XL flow cytometer (Beckman Coulter). […]

[2] = system: melanoma cell lines (WM115, WM266-4, SKmel28, WM793B, 1205Lu); experiment: MTT assay in melanoma cell lines; type: cell-based, human; conditions: for proliferation (MTT assay) with NSAID: WM115, WM266-4 and SKMEL28, increasing concentrations, 48 hrs
Procedure: 5×10^3 cells/well were seeded in 96-well culture plates. At different time points, cells were incubated with 0.5% MTT (3-(4,5-dimethylthiazol-2-yl)-2,5-diphenyltetrazolium bromide) for 4 h at 37° C. and then dissolved with 100 μl Isopropanol with 0.04N HCl. The plate was read at 560 nm with a reference filter of 650 nm. Results are expressed as viability percentage, as compared to control.
Five melanoma cell lines were used for testing the efficacy of XYZ or its non-PEGylated peptide component: WM115 and WM266-4, which are respectively the primary and metastatic melanoma derived from the same patient and expressing high levels of CD271, and SKme128, a metastatic melanoma cell line expressing low levels of CD271, WM793B, a primary melanoma, and 1205Lu derived from lung metastatic melanoma. The viability of the cell culture is assessed by MTT conversion. MTT solution is applied to the plates and placed into a cell culture incubator for 4 hours. The blue formazan metabolite produced by viable cells is then extracted into isopropanol and absorbance is measured at 570 nm using a spectrophotometer.

Molecule | CD271 protein levels (percentage of CD271 positive cells, flow cytometry) [1] | proliferation (MTT assay) with NSAID [2] | cell proliferation (MTT assay) ([2]; five melanoma cell lines, 48 h and 96 h after treatment, no significant difference between PEGylated and non-PEGylated form)
CC(C)Cc1ccc(C(C)C(=O)O)cc1 (centres unmarked) [ibuprofen, reference compound] | increased CD271 protein levels | dose-dependently decreases proliferation | –
CC(C(=O)O)c1cccc(C(=O)c2ccccc2)c1 (centres unmarked) [ketoprofen, reference compound] | increased CD271 protein levels | dose-dependently decreases proliferation | –
Ac-[dM][dL]G[dI][dI][dA]G[dK][dN][dS]G-NH2 [non-PEGylated peptide] | – | – | reduce cell proliferation

— US20230137491A1, “PEPTIDES AND USES THEREOF” (SINTICA BIOTECH SOCIETÀ A RESPONSABILITÀ LIMITATA …, priority 2020, published 2023)
